Values quoted from earlier work as cited in patent US20220280463A1, “PHARMACEUTICAL FORMULATIONS COMPRISING DICLOFENAC” (FTF PHARMA PRIVATE LIMITED, priority 2019, published 2022).

System: erythrocytes
Conditions: aqueous solution of 2% propylene glycol, in 45 min

For CC(O)CO (stereo not shown) [propylene glycol], the haemolysis of erythrocytes is given as 100%.
